Results reported in ChEMBL document CHEMBL1201862, “PubChem BioAssay data set” (2004).
Activity calls are given as the source filed them. Rule as the data show it, for most assays here: actives have a measured EC50 and inactives only a lower limit.

Tests used:
P388 = assay: cells; type: functional; settings: Mus musculus
SN12K1 = assay: cells; type: functional; settings: Homo sapiens
P388/ADR = assay: cells; type: functional; settings: Mus musculus
[1] = cytotoxicity in HEK-293T cells, dose response, cytotoxicity control for BCR NF-kB inhibitor project, luminescence, B-cell screen hits (AID 489021); type: functional, cell-based;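 also: HEK-293T cells carrying an NF-kB luciferase reporter; cells exposed to compound for about 14 hours before viability readout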
[2] = Luminescence Cell-Based Dose Retest to Confirm Inhibitors of Cancer Stem Cells. [Related pubchem assays (depositor defined):AID2717, AID2721]; type: functional; settings: Homo sapiens
CHO = assay: cytotoxicity in TLR9-MyD88 CHO cells, dose response, cytotoxicity control for TLR9-MyD88 binding inhibitor project, cell-based, luminescence (AID 588339); type: functional, hamster; settings: Cricetulus griseus;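 also: CHO cells stably coexpressing TLR9 and MyD88 fusions from primary screen; compound exposure lasted 48 hours before viability readout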
[3] = target: ATP-dependent molecular chaperone HSP82 (Candida albicans (strain WO-1) (Yeast), UniProt C4YTQ8); assay: loss of DOC-induced GRE-beta-galactosidase reporter signal, dose response, Hsp90 inhibitor project, S. cerevisiae, luminescence (AID 2400); type: functional, cell-based;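 also: beta-galactosidase luminescence from glucocorticoid response element reporter as proxy for Hsp90 function; inhibitor potency where signal loss means Hsp90 inhibition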
Sequence of ATP-dependent molecular chaperone HSP82 (C4YTQ8 whole entry): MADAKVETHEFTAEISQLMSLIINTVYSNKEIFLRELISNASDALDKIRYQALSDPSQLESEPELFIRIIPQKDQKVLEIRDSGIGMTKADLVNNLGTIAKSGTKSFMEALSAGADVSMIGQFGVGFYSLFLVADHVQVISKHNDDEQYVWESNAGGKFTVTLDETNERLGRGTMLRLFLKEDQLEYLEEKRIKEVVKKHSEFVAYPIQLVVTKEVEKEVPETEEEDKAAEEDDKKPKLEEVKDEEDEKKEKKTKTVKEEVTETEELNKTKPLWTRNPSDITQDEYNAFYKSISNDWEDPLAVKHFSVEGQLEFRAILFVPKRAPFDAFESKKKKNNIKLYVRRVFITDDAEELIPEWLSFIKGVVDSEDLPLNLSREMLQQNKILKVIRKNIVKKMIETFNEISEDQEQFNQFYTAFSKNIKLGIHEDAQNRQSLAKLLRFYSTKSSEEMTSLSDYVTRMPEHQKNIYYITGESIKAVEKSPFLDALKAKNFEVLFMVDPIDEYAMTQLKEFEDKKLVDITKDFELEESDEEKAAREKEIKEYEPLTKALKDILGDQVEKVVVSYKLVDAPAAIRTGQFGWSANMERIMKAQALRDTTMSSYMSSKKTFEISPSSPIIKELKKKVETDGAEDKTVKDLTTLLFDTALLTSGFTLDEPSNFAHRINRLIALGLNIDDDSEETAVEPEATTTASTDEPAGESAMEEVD

[4] = target: T1, Serine/threonine-protein phosphatase (Candida dubliniensis (strain CD36 / CBS 7987 / NCPF 3949 / NRRLY-17841) (Yeast), UniProt B9W6M3); assay: calcineurin pathway inhibitors in yeast reporter, dose response, S. cerevisiae, CDRE-lacZ, luminescence, secondary (AID 2388); type: functional, cell-based;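 also: yeast reporter cells carrying a calcineurin-responsive lacZ construct stimulated with calcium chloride; luminescent beta-galactosidase reporter signal in whole cells rather than isolated phosphatase activity; potency for inhibition where a drop in reporter signal means calcineurin blockade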
T1 sequence (B9W6M3 whole entry): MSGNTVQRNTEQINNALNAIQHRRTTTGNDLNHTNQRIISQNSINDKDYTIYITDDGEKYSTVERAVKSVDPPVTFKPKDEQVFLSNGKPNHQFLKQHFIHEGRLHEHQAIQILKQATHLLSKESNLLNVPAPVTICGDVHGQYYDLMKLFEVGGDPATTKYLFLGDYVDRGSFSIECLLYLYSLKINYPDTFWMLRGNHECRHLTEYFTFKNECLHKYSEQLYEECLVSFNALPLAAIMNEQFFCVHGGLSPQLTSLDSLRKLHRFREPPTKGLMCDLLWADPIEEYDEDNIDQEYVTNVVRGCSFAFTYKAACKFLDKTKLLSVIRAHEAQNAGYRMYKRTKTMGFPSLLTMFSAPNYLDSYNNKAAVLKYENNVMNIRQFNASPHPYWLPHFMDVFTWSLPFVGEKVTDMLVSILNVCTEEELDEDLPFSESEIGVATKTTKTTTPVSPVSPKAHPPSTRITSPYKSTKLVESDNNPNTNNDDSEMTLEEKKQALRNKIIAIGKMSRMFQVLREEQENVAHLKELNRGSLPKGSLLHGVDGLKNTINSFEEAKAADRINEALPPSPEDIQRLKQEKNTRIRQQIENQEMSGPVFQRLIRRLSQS

[5] = C. albicans growth with fluconazole, confirmation, fluorescence, retest (AID 2467); type: functional, cell-based
[6] = NIH-3T3 fibroblast cytotoxicity, dose response, cytotoxicity control, cell-based, fluorescence, Alamar Blue, secondary assay (AID 2327); type: functional;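 also: NIH-3T3 mouse fibroblasts cultured with fluconazole at 8 µg/mL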
Melanocortin receptor 4 = Melanocortin receptor 4 (Homo sapiens, UniProt P32245); assay: MC4R antagonist potency on cAMP, dose response, cell-based, TR-FRET, biased antagonists (AID 602298); type: functional;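 also: antagonist potency against agonist-stimulated cAMP production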
Sequence of Melanocortin receptor 4 (P32245 whole entry): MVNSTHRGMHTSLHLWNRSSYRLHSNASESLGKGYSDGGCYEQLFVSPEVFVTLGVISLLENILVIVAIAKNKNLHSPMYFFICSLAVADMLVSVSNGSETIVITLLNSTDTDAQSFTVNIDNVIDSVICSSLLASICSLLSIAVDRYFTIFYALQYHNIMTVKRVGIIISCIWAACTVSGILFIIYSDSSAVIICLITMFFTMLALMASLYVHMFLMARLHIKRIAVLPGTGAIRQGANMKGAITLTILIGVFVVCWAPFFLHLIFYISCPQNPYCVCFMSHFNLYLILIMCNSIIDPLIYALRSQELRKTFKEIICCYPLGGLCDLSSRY

[7] = nonselective inhibitors of cellular cAMP signaling, dose response, counter-screen for MC4R biased antagonist project, cell-based, TR-FRET cAMP detection (AID 602305); type: functional;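 also: U2OS cells stimulated with forskolin near its EC80 as the cAMP inducer; potency is for inhibition of forskolin-stimulated cAMP signaling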
[8] = inhibitors of firefly luciferase expression or activity, dose response, H4 neuroglioma cells, luminescence (AID 1990); type: functional, cell-based
[9] = Luminescence Cell-Based Dose Response HTS to Identify Inhibitors of 5'UTR Stem-Loop Driven Prion Protein mRNA Translation in H4 Neuroglioblastoma Cells. [Related pubchem assays: 1827 (Project Summary), 1813 (Primary HTS)]; type: functional
BJ [10] = assay: cytotoxicity toward BJ-TERT fibroblasts, dose response, cell-based, RAS-independent, luminescence (AID 1933); type: functional; settings: Homo sapiens
BJ [11] = assay: cytotoxicity toward BJ-TERT-LT-ST fibroblasts, dose response, cell-based, RAS-independent, luminescence (AID 1935); type: functional; settings: Homo sapiens;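 also: BJ fibroblasts immortalized with TERT plus LT and ST oncogenes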
BJ [12] = assay: cytotoxicity toward Ras-transformed BJeLR fibroblasts, dose response, cell-based, alamar blue fluorescence, cherrypicked samples (AID 2631); type: functional; settings: Homo sapiens;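 also: confirmatory dose-response assay in RAS-dependent BJ fibroblasts engineered with TERT, LT and ST, with cytotoxicity read by fluorescence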
[13] = cytotoxicity toward DRD oncogenic fibroblasts, dose response, cell-based, non-viral oncogenic, luminescence (AID 1934); type: functional; settings: Homo sapiens
[14] = inhibitors of SNCA 5'UTR-driven translation, confirmation, luminescence, H4 neuroglioblastoma cells, dose confirmation (AID 2454); type: functional, cell-based;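 also: H4 neuroglioblastoma cells carrying an alpha-synuclein 5'UTR luciferase reporter; potency for inhibition of the luciferase signal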
[15] = inhibitors of SNCA 5'UTR-driven reporter translation, confirmation, H4 neuroglioma cells, luminescence (AID 1988); type: functional, cell-based
cells = type: functional, cell-based
[16] = luciferase reporter signal reduction – luminescence, H4-C neuroglioblastoma cells, dose response (AID 2458); type: functional, cell-based;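 also: H4 neuroglioblastoma cells stably carrying a luciferase reporter gene fusion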
BJ [17] = assay: cells; type: functional, cell-based; settings: Homo sapiens
HEK293 = assay: inhibitors of LMP1-driven NF-kB reporter, dose response, cell-based, HEK293, luciferase, cherry-pick (AID 588343); type: functional; settings: Homo sapiens
Protein RecA = target: T2, Protein RecA (Mycobacterium tuberculosis, UniProt P9WHJ3); assay: Fluorescence Cell-Free Homogeneous Dose Retest to Identify Inhibitors of RecA-Intein Splicing Activity. [Related pubchem assays (depositor defined):AID2097, AID2223, AID489010, AID492950]; type: functional
T2 sequence (P9WHJ3 whole entry): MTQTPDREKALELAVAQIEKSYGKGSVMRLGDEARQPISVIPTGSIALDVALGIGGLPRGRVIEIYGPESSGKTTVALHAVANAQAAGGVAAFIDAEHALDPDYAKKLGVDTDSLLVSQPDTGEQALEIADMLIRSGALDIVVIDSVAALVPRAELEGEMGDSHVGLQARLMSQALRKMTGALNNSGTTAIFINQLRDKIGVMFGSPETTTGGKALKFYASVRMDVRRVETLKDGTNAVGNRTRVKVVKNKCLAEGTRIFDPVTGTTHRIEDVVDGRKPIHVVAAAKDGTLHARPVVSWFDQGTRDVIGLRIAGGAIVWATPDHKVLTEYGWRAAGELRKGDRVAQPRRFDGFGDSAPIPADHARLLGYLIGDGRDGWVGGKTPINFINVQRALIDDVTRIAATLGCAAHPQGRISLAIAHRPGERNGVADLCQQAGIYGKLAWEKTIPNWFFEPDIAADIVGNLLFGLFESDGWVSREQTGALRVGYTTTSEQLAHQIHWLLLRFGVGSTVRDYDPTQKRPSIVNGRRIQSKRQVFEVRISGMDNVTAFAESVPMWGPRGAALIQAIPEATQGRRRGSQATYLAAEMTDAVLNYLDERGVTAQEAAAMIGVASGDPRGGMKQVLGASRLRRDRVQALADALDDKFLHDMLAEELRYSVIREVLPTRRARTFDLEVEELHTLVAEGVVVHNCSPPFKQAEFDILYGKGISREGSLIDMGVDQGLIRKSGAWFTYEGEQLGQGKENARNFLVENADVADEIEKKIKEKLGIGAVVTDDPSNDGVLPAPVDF

[18] = cytotoxicity toward NIH3T3 fibroblasts, dose response, counter-screen, cell-based, ATP luminescence, mouse fibroblasts (AID 2010); type: functional;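 also: cells exposed to compound for about 90 hours before reading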
[19] = target: T3, Replicative DNA helicase DnaB (Mycobacterium tuberculosis, UniProt P9WMR3); assay: DnaB intein splicing inhibitors, dose response, biochemical, cell-free fluorescence (AID 449749); type: functional
T3 sequence (P9WMR3 whole entry): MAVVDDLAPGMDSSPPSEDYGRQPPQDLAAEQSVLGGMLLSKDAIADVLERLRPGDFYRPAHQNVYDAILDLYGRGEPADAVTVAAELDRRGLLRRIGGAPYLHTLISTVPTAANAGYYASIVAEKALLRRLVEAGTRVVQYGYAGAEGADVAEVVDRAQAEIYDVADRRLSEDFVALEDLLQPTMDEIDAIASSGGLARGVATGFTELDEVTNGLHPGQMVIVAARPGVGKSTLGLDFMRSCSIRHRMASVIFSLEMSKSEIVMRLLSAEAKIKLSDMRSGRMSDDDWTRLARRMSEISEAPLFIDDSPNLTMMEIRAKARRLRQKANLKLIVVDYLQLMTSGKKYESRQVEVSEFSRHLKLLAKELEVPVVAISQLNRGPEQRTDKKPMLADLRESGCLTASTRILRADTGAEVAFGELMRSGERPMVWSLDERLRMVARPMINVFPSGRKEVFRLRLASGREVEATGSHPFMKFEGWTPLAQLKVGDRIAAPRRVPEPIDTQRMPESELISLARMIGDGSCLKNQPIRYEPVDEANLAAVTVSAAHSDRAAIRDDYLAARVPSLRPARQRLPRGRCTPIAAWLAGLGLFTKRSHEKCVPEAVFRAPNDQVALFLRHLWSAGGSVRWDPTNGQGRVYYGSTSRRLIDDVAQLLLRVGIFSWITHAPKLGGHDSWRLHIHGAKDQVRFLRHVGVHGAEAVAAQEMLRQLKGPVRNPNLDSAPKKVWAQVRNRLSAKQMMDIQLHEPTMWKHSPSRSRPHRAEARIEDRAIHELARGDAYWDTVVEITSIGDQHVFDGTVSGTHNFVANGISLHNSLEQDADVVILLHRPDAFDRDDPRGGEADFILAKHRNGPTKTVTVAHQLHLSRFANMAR

[20] = target: T4, Heat shock factor protein 1 (Mus musculus, UniProt P38532); assay: HSF1 potentiators in luciferase reporter cells, confirmation, cell-based, NIH3T3, luminescence, dose retest (AID 435004); type: functional;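 also: stress induced by proteasome inhibitor MG132 added 30 min after compound; luciferase reporter driven by HSF1 response element in NIH3T3 cells; actives raise luminescence as potentiators of the MG132 stress response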
T4 sequence (P38532 whole entry): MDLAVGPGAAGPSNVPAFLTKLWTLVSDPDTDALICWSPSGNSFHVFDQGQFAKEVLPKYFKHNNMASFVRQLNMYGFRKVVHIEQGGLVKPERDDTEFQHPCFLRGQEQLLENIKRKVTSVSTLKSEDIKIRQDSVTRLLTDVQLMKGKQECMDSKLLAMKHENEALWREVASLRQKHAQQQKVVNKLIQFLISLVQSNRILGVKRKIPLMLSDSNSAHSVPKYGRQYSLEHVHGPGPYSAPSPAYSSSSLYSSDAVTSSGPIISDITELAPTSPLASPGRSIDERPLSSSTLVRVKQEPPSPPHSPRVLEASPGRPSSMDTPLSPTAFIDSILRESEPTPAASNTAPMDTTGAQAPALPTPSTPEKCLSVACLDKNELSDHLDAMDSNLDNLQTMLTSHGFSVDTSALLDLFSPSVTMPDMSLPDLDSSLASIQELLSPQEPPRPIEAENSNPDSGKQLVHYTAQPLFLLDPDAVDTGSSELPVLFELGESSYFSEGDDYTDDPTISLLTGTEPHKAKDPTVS

[21] = inhibitors of intracellular T. cruzi replication, confirmation, NIH3T3 host cells, beta-gal luminescence (AID 2044); type: functional, cell-based;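 also: intracellular parasites grown in NIH/3T3 mouse fibroblasts as host cells; luminescent beta-galactosidase reporter signal from transgenic T. cruzi replicating inside host cells; inhibitors lower the luminescence signal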
[22] = target: Luciferin 4-monooxygenase (Photinus pyralis, UniProt P08659); assay: firefly luciferase enzyme inhibitors, dose response, biochemical, luminescence (AID 1891)
Sequence of Luciferin 4-monooxygenase (P08659 whole entry): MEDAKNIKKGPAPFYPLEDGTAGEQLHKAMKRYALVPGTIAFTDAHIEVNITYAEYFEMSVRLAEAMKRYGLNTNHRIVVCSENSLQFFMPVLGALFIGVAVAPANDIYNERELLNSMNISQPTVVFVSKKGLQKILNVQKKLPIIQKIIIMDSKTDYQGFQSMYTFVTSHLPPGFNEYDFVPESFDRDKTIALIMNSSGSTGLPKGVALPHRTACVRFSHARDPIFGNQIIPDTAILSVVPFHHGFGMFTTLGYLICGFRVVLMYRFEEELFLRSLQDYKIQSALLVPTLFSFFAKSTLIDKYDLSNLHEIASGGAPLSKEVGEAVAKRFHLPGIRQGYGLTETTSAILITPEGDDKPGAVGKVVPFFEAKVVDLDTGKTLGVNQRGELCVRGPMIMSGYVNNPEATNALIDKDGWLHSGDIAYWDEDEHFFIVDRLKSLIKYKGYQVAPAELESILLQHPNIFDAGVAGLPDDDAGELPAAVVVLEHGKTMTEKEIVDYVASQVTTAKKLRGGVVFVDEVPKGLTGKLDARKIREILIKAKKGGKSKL

[23] = Luminescence Cell-Based Dose Confirmation HTS to Identify Inhibitors of Platelet Dense Granule Release. [Related pubchem assays: 1663 (Primary HTS), 1678 (Summary of Project)]; type: functional

Cc1c2cnccc2c(C)c2c1c1ccccc1n2CCCCCCNCc1ccccc1
GI50 (P388): 0.269 µM (active)
GI50 (SN12K1): 1.02 µM (active)
GI50 (P388/ADR): 0.246 µM (active)

COC(=O)c1c(-c2ccc(N(C)C)cc2)sc2ccc(OC)cc12
IC50 [1]: > 80 µM (inactive)
AC50 [2]: 3.3 µM (active)
IC50 (CHO): > 49.7 µM (inactive)

C=CCOC(=O)c1sc(NC(=O)c2ccco2)nc1C
EC50 [3]: 29.7 µM (active)
EC50 [4]: > 180 µM (inactive)
EC50 [5]: 0.544 µM (active)
EC50 [6]: > 150 µM (inactive)

CC(C)N(c1ccccc1)c1ccc(NC(=O)COC(=O)CCN2C(=O)c3cccc([N+](=O)[O-])c3C2=O)cc1
IC50 (Melanocortin receptor 4): > 64.6 µM (inactive)
IC50 [7]: > 64.6 µM (inactive)

COc1ccc(S(=O)(=O)N2c3cc(Cl)ccc3Oc3nc4ccccc4nc32)cc1
EC50 [8]: 3.64 µM (inconclusive)
EC50 [9]: 7.56 µM (active)
EC50 (BJ [10]): 6.91 µM (inconclusive)
EC50 (BJ [11]): 3.81 µM (active)
EC50 (BJ [12]): < 0.104 µM (active)
EC50 [13]: 7.55 µM (inconclusive)
EC50 [14]: > 12 µM (not active)
EC50 [15]: < 0.1 µM (active)
EC50 (cells): > 12 µM (not active)
EC50 [16]: 2.41 µM (active)
EC50 (BJ [17]): 5.06 µM (active)

Cn1cccc1/C=C1\CC(C(C)(C)C)C/C(=C\c2cccn2C)C1=O (stereo not drawn)
AC50 (HEK293): 160 µM (active)

CC[C@](C)(O)C(=O)O[C@H]1C(=O)O[C@@H]2C[C@H]3C(C)=C[C@H](O)[C@@H](O)[C@]3(C)[C@H]3[C@@]4(O)OC[C@]32[C@@H]1[C@@H](C)[C@H]4O
GI50 (P388): 45.3 µM (inactive)
GI50 (SN12K1): 7.19 µM (inactive)
GI50 (P388/ADR): 88.5 µM (inactive)

NC1(C(=O)O)CCCC1 [CYCLOLEUCINE]
GI50 (P388): > 625 µM (inactive)
GI50 (SN12K1): > 625 µM (inactive)
GI50 (P388/ADR): > 625 µM (inactive)

O=C(CCl)c1ccc2c(c1)CCN2C(=O)C1CCCCC1
EC50 (Protein RecA): 4.08 µM (active)
EC50 [18]: 6.6 µM (active)
AC50 [19]: 42.4 µM (active)
IC50 (Melanocortin receptor 4): > 64.6 µM (inactive)
EC50 [20]: 4.1 µM (inconclusive)
IC50 [7]: > 64.6 µM (inactive)
EC50 [21]: 1.92 µM (active)

O=C(NCc1cccnc1)c1ccc(NC(=O)c2ccc(Br)cc2)cc1
EC50 (BJ [10]): > 150 µM (not active)
EC50 (BJ [11]): 14 µM (active)
AC50 [2]: 1.36 µM (active)
EC50 (BJ [12]): 0.169 µM (active)
EC50 [13]: > 150 µM (not active)
EC50 (BJ [17]): 1.3 µM (inconclusive)

CCOC(=O)CSc1nnc(-c2ccc(NS(=O)(=O)c3ccc(C)cc3)cc2)o1
IC50 (Melanocortin receptor 4): > 64.6 µM (inactive)
IC50 [7]: > 64.6 µM (inactive)

CCOc1ccc(N/C=C/C(=O)c2ccccc2)cc1
EC50 [22]: 0.453 µM (active)
AC50 (HEK293): 3.62 µM (active)
EC50 [23]: 2 µM (active)
